Patent publication US9145424B2, “Treatment of amyotrophic lateral sclerosis” (Northwestern University, priority 2008, dated 2015)
Values after ≈ are worked out from the molar mass of the structure shown. Values joined by “and” are separate entries in the source; they are usually repeats but may differ in a detail not shown here. Identical values can stand only once. Like-named read-outs stand apart in the source and are kept apart here.

Key:
[1] = In vitro Caco-2 permeability; format: in vitro ADME; details: human, Caco-2
Procedure: General Permeability: High membrane permeability is required for effective GI absorption and optimal bioavailability. Passive permeability is typically assessed in the PAMPA artificial membrane assay (Kansy et al., J. Med. Chem. 2002, 45(8), 1712-1722). Cell-based permeability determinations using the Caco-2 cell assay are more resource intensive but more predictive of active transport or efflux in vivo (Artursson et al., Adv. Drug. Deliv. Rev. 2001, 46(1-3), 27-43). Caco-2 assays are performed as needed during SAR development.

in vivo = details: mouse
Aqueous solubility = format: physicochemical
Procedure: Solubility: Because compounds are stored in DMSO, it is necessary to determine aqueous solubility of initial hit compounds and their analogs. High solubility in aqueous solution is necessary for high GI absorption, bioavailability, and for chemical formulation. Compounds should be soluble in aqueous solution at >10 μg/ml. Solubility of >50 μg/ml is preferred.

[2] = Metabolic half-life in rats; format: in vitro ADME; details: rat
Excerpt: (§1) CMB-087229 was sent for an evaluation of its in vitro ADME properties.

[3] = In vitro microsomal stability, mouse; format: in vitro ADME; details: mouse, mouse liver microsomes; read-out: mouse metabolic potential T1/2
Procedure: (§2) Metabolism (microsome, S9 fraction, CYP450): Liver Cytochrome P450 (CYP450) enzymes are the major route for xenobiotic metabolism and microsomal and hepatocyte stability is the best predictor of pharmacokinetic half-life. Cross-species comparisons of metabolism in liver microsomes can predict potential issues with liver toxicity in humans. Selected active compounds are tested in liver microsomes from efficacy species (mouse), toxicity species (rat, dog, monkey), and humans for metabolic stability.
as §1
(§3) Two possible amines, secondary and tertiary AAP analogues, were initially screened in the protection assay (FIG. 30) and for in vitro microsomal stability (Table 1) and Caco-2 permeability (Table 2). […] The solubilities of 2 and 3 were good in aqueous media (≧150 μM), and no precipitation occurred at the highest concentration. The in vitro plasma half-life for both compounds was >60 min.

[4] = Brain uptake procedure, LCMS of brain and plasma; format: in vivo, mice (Tg6799 colony with B6/SJL background); details: 1 mg/kg i.p.; for concentration at 10 min / Kp at 10 min: Tg6799 colony with B6/SJL background, mouse, intraperitoneal, 1 mg/kg; for Kp at 10 min: brain/plasma
Procedure: CMB-087229 Mice Brain and Plasma Data CMB-087229 (1 mg/kg) was administrated to mice (Tg6799 colony with B6/SJL background) by intraperitoneal injection in a 60% PBS and 40% dimethyl sulfoxide solution. At 10 minutes after compound administration the mice were sacrificed. Blood was harvested and plasma was transferred to flash freeze in liquid nitrogen after centrifugation. Mice were perfused. The brain was homogenized in 100% acetonitrile. CMB-003319 (0.5 μg, 1.73 nmol) was added as an internal standard. The homogenates were centrifuged at 12000×g for 12 min, and the supernatant was evaporated. The residue was reconstituted in 33.3% acetonitrile. Solid phase extraction followed by LCMS (API 300 liquid chromatography-tandem mass spectrometry system, Applied Biosystems, Foster City, Calif.; Agilent 1100 series HPLC system, Agilent Technologies, Wilmington, Del.) was used to quantify the amount of CMB-087229 in mouse brain. Solid-phase extraction cartridges (Sep-Pak C18, Water Associates, Milford, Mass.) were washed with 1 mL acetonitrile and equilibrated with 1 mL of water. The reconstituted supernatant was then loaded, washed with 1 mL×2 of 33.3% acetonitrile. CMB-087229 was then dried and submitted for LCMS.

[5] = In vitro microsomal stability, human; format: in vitro ADME; details: human, human liver microsomes; read-out: human metabolic potential T1/2
Procedure: as §2, §1, §3

[6] = In vitro plasma stability; format: in vitro ADME; details: plasma; read-out: plasma stability T1/2
Procedure: Plasma stability: Plasma stability of active compounds is assessed in efficacy species (mouse), toxicity species (rat, dog, monkey), and human cells.

G93A SOD1 ALS mice = test: Survival in the G93A SOD1 ALS mouse model; format: in vivo; details: 20 mg/kg
Procedure: The compounds identified were evaluated in the transgenic G93A ALS mouse model. ADME data was used to determine optimal route of administration. LD50 and maximally-tolerated dose were determined, and that information was used to design and execute pharmacokinetic studies to assess brain bioavailability, and to guide choice of dosing regimen (i.e., frequency, dose, route). […] This may include further dose optimization, phenotype assessment, comparison with compounds of established efficacy, and analysis of brain tissue in treated animals.
In the present study, G93A SOD1 mice and littermate controls were bred from existing colonies at the Bedford VA Medical Hospital. The male G93A SOD1 mice were mated with B6SJL females and the offspring were genotyped by PCR using tail DNA. […] Mice were housed in micro-isolator cages in complete barrier facilities. A 12 hour light-dark cycle was maintained and animals were given free access to food and water. Control and transgenic mice of the same age (±2 days) and from the same ‘f’ generation were selected from multiple litters to form experimental cohorts (n=20 per group). […]
Data sets are generated and analyzed for each clinical and neuropathological measure. […] Dose-dependent effects are assessed in each treatment group using multiple two-sided ANOVA tests. […]

[7] = system: PC12 cells that express mutant G93A SOD1; test: Mutant SOD1-induced cytotoxicity protection assay
Procedure: This idea was tested by examining the sensitivity of PC12 cells to SOD1 aggregates in the presence and absence of proteasome inhibitor MG132. PC12 cells expressing no SOD1, wild type SOD1, G85R SOD1 or G93A SOD1 were grown with or without MG132 (FIG. 1).
PC12 cells expressing G93A SOD1 were treated with 100 nM MG132 with or without co-treatment with geldanamycin or radicicol.

O=c1cc(COc2cc(Cl)cc(Cl)c2)[nH][nH]1 [CMB-087229]
Papp (A→B) [1]: 37 ×10⁻⁶ cm/s | Kp (in vivo): ~0.55 | concentration at 4 h (in vivo; concentration in the brain): 194 µM | concentration at 3 h (in vivo; plasma concentration): 342 µM | concentration at 6 h (in vivo; plasma concentration): 347 µM | concentration at 12 h (in vivo; plasma concentration): 248 µM | concentration at 24 h (in vivo; plasma concentration): 1.68 µM | aqueous solubility (Aqueous solubility): 250 µM (≈ 64.8 µg/mL) | half-life [2]: ~2 h | half-life [3]: 0.6 h | Brain Extract concentration ([4]; 10 minutes, single mice): 0.159 µg/mL and 0.187 µg/mL | Brain concentration ([4]; 10 minutes, single mice): 0.366 µg/g and 0.467 µg/g | Brain/plasma Ratio July ([4]; 10 minutes, single mice): 4.10 and 3.13 | Plasma concentration July ([4]; 10 minutes, single mice): 89.2 ng/mL and 149 ng/mL | concentration at 10 min ([4]; brain extract, 10 minutes, single mice, read-out: Brain Extract concentration): 121 ng/mL | concentration at 10 min ([4]; brain, 10 min July, read-out: Brain concentration (Mean ± S.E.)): 363 ± 105 ng/g | concentration at 10 min ([4]; brain, 10 minutes, single mice, read-out: Brain concentration): 257 ng/g | Kp at 10 min ([4]; 10 min July, read-out: Brain/Plasma Ratio (Mean ± S.E.)): 3.36 ± 0.66 | Kp at 10 min ([4]; 10 minutes, single mice, read-out: Brain/plasma Ratio July): 2.84 | concentration at 10 min ([4]; plasma, 10 min July, read-out: Plasma concentration (Mean ± S.E.)): 110 ± 34.2 ng/mL | concentration at 10 min ([4]; plasma, 10 minutes, single mice, read-out: Plasma concentration July): 90.4 ng/mL | half-life [5]: 1.55 h | half-life [6]: 0.283 h | extension in survival (G93A SOD1 ALS mice): 13.4% | potency (ED50) [7]: 74 nM
